Legend:
[1] = tested on: Smad2/Smad3 phosphorylation; assay: Phospho-Smad2/3 Inhibition Assay (western blot), Panc-1; format: cell-based, human; settings: at 10 μM, Panc-1 pancreatic cancer cell line; starred symbols = activation
Procedure, shortened: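 Panc-1 cells (KRas G12D), starved overnight in 0.5% FBS, treated 3 h at 37° C with compound at 10 μM final (0.3% DMSO) or serial dilutions for IC50, then stimulated with 10 ng/ml TGF-b1 for 1 h. Phospho-Smad2 (Ser465/467) and phospho-Smad3 (Ser423/425) detected by western blot.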

[2] = tested on: KRas G12D mutant; assay: Ras GTP Binding Domain Inhibition Assay (Ras Superfamily Assay); settings: at 20 μM; for KRas G12D mutant + SOS: % inh.: with SOS; for KRas G12D mutant: % inh.: without SOS
Procedure, shortened: (§1)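 His-tagged GTPases immobilised on nickel-coated plates, pre-incubated with compound (20 μM single point, or serial dilution for IC50) 3 h at room temperature, with or without 10-30 μg/mL Sos (residues 556-1049) in the final hour. Bound Cy3- or Cy5-GTP (100 nM, 45 min) measured by fluorescence after washing.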

[3] = molecular target: T1, Rac-1 (Homo sapiens, UniProt P63000); assay: as above; settings: read-out: Rac-1: % inh.
T1 construct: made in house
Procedure, shortened: as §1

[4] = tested on: KRas wild type; assay: as above; settings: at 20 μM; for KRas wild type + SOS: % inh.: with SOS; for KRas wild type: % inh.: without SOS
Procedure, shortened: as §1

`Cc1c(-c2ccn(C)n2)cn2nc(-c3nccn3C)nc(Nc3ccc(-c4ccccn4)cn3)c12` [Compound 249, N-([2,3′-Bipyridin]-6′-yl)-5-methyl-2-(1-methyl-1H-imidazol-2-yl)-6-(1-methyl-1H-pyrazol-3-yl)pyrrolo[2,1-f][1,2,4]triazin-4-amine] was tested, and the “% inh of Smad2/3 phosphorylation in Panc-1” value (shortened to “% inh … in Panc-1”) [1] was 0 (0 = 0% inhibition), the “KRas G12D mutant + SOS: % inh.” value [2] was “C (C = 50-75% inhibition)” and the “KRas G12D mutant: % inh.” value [2] was “C (C = 50-75% inhibition)”. For the same compound, the inhibition at 20 µM [3] was 76 to 100%, the “KRas wild type + SOS: % inh.” value [4] was “C (C = 50-75% inhibition)” and the “KRas wild type: % inh.” value [4] was “C (C = 50-75% inhibition)”.

`Cc1c(-c2ccn(C)n2)cn2nc(-c3nccn3C)nc(Nc3cc(OC(F)F)n(C)n3)c12` [Compound 254, N-(5-(Difluoromethoxy)-1-methyl-1H-pyrazol-3-yl)-5-methyl-2-(1-methyl-1H-imidazol-2-yl)-6-(1-methyl-1H-pyrazol-3-yl)pyrrolo[2,1-f][1,2,4]triazin-4-amine] was tested, and the “% inh … in Panc-1” value [1] was “B* (B* = 26-45% activation)”, the “KRas G12D mutant + SOS: % inh.” value [2] was “D (D = 76-100% inhibition)” and the “KRas G12D mutant: % inh.” value [2] was “D (D = 76-100% inhibition)”. The inhibition at 20 µM [3] was 76 to 100%, the “KRas wild type + SOS: % inh.” value [4] was “D (D = 76-100% inhibition)” and the “KRas wild type: % inh.” value [4] was “D (D = 76-100% inhibition)”.

With `COc1cc(Nc2nc(-c3nccn3C)nn3cc(-c4ccn(C)n4)c(C)c23)ncc1-n1cnc(C)c1` [Compound 244, N-(4-Methoxy-5-(4-methyl-1H-imidazol-1-yl)pyridin-2-yl)-5-methyl-2-(1-methyl-1H-imidazol-2-yl)-6-(1-methyl-1H-pyrazol-3-yl)pyrrolo[2,1-f][1,2,4]triazin-4-amine] the “% inh … in Panc-1” value [1] was “A* (A* = 1-25% activation)”, the “KRas G12D mutant + SOS: % inh.” value [2] was “D (D = 76-100% inhibition)” and the “KRas G12D mutant: % inh.” value [2] was “D (D = 76-100% inhibition)”. The inhibition at 20 µM [3] was 76 to 100%, the “KRas wild type + SOS: % inh.” value [4] was “D (D = 76-100% inhibition)” and the “KRas wild type: % inh.” value [4] was “C (C = 50-75% inhibition)”.

`CCOc1cc(Nc2nc(-c3nccn3C)nn3cc(-c4ccn(C)n4)c(C)c23)n[nH]1` [Compound 260, N-(5-Ethoxy-1H-pyrazol-3-yl)-5-methyl-2-(1-methyl-1H-imidazol-2-yl)-6-(1-methyl-1H-pyrazol-3-yl)pyrrolo[2,1-f][1,2,4]triazin-4-amine] was tested, and the “% inh … in Panc-1” value [1] was “A* (A* = 1-25% activation)”, the “KRas G12D mutant + SOS: % inh.” value [2] was “C (C = 50-75% inhibition)” and the “KRas G12D mutant: % inh.” value [2] was “C (C = 50-75% inhibition)”. For the same compound, the inhibition at 20 µM [3] was 50 to 75%, the “KRas wild type + SOS: % inh.” value [4] was “D (D = 76-100% inhibition)” and the “KRas wild type: % inh.” value [4] was “D (D = 76-100% inhibition)”.

In the case of `Cc1c(-c2ccn(C)n2)cn2nc(-c3nccn3C)nc(Nc3cc(-c4ccccn4)ccn3)c12` [Compound 248, N-([2,4′-Bipyridin]-2′-yl)-5-methyl-2-(1-methyl-1H-imidazol-2-yl)-6-(1-methyl-1H-pyrazol-3-yl)pyrrolo[2,1-f][1,2,4]triazin-4-amine], the “% inh … in Panc-1” value [1] is reported as “D* (D* = 76-100% activation)”, the “KRas G12D mutant + SOS: % inh.” value [2] is reported as “D (D = 76-100% inhibition)” and the “KRas G12D mutant: % inh.” value [2] is reported as “D (D = 76-100% inhibition)”. The inhibition at 20 µM [3] was 76 to 100%, the “KRas wild type + SOS: % inh.” value [4] was “D (D = 76-100% inhibition)” and the “KRas wild type: % inh.” value [4] was “D (D = 76-100% inhibition)”.

With `Cc1c(-c2ccn(C)n2)cn2nc(-c3nccn3C)nc(Nc3cc(-n4ccnc4C)ccn3)c12` [Compound 246, 5-Methyl-N-(4-(2-methyl-1H-imidazol-1-yl)pyridin-2-yl)-2-(1-methyl-1H-imidazol-2-yl)-6-(1-methyl-1H-pyrazol-3-yl)pyrrolo[2,1-f][1,2,4]triazin-4-amine] the “% inh … in Panc-1” value [1] was “C* (C* = 46-75% activation)”, the “KRas G12D mutant + SOS: % inh.” value [2] was “D (D = 76-100% inhibition)” and the “KRas G12D mutant: % inh.” value [2] was “D (D = 76-100% inhibition)”. For the same compound, the inhibition at 20 µM [3] was 76 to 100%, the “KRas wild type + SOS: % inh.” value [4] was “D (D = 76-100% inhibition)” and the “KRas wild type: % inh.” value [4] was “D (D = 76-100% inhibition)”.

In the case of `Cc1c(-c2ccn(C)n2)cn2nc(-c3nccn3C)nc(Nc3cc(-c4cccnc4)ccn3)c12` [Compound 250, N-([3,4′-Bipyridin]-2′-yl)-5-methyl-2-(1-methyl-1H-imidazol-2-yl)-6-(1-methyl-1H-pyrazol-3-yl)pyrrolo[2,1-f][1,2,4]triazin-4-amine], the “% inh … in Panc-1” value [1] is reported as “C* (C* = 46-75% activation)”, the “KRas G12D mutant + SOS: % inh.” value [2] is reported as “D (D = 76-100% inhibition)” and the “KRas G12D mutant: % inh.” value [2] is reported as “D (D = 76-100% inhibition)”. The inhibition at 20 µM [3] was 76 to 100%, the “KRas wild type + SOS: % inh.” value [4] was “D (D = 76-100% inhibition)” and the “KRas wild type: % inh.” value [4] was “D (D = 76-100% inhibition)”.

For `CO[C@H]1C[C@H](Nc2nc(-c3nccn3C)nn3cc(-c4ccn(C)n4)c(C4CC4)c23)C1` [Compound 275, 5-Cyclopropyl-N-((1r,3r)-3-methoxycyclobutyl)-2-(1-methyl-1H-imidazol-2-yl)-6-(1-methyl-1H-pyrazol-3-yl)pyrrolo[2,1-f][1,2,4]triazin-4-amine], the “% inh … in Panc-1” value [1] was “B (B = 26-45% inhibition)”, the “KRas G12D mutant + SOS: % inh.” value [2] was “A (A = 1-25% inhibition)” and the “KRas G12D mutant: % inh.” value [2] was “A (A = 1-25% inhibition)”. The inhibition at 20 µM [3] was 1 to 25%, the “KRas wild type + SOS: % inh.” value [4] was 0 (0 = 0% inhibition) and the “KRas wild type: % inh.” value [4] was “A (A = 1-25% inhibition)”.

With `COc1cc(Nc2nc(-c3nccn3C)nn3cc(-c4ccn(C)n4)c(C)c23)n[nH]1` [Compound 252, N-(5-Methoxy-1H-pyrazol-3-yl)-5-methyl-2-(1-methyl-1H-imidazol-2-yl)-6-(1-methyl-1H-pyrazol-3-yl)pyrrolo[2,1-f][1,2,4]triazin-4-amine] the “% inh … in Panc-1” value [1] was “B* (B* = 26-45% activation)”, the “KRas G12D mutant + SOS: % inh.” value [2] was “D (D = 76-100% inhibition)” and the “KRas G12D mutant: % inh.” value [2] was “D (D = 76-100% inhibition)”. The inhibition at 20 µM [3] was 76 to 100%, the “KRas wild type + SOS: % inh.” value [4] was “D (D = 76-100% inhibition)” and the “KRas wild type: % inh.” value [4] was “C (C = 50-75% inhibition)”.

`COc1cccc(-c2cn3nc(-c4nccn4C)nc(N[C@H]4C[C@@H](OC)C4)c3c2-c2ccccc2)c1C` [Compound 269, 6-(3-Methoxy-2-methylphenyl)-N-((1s,3s)-3-methoxycyclobutyl)-2-(1-methyl-1H-imidazol-2-yl)-5-phenylpyrrolo[2,1-f][1,2,4]triazin-4-amine] was tested, and the “% inh … in Panc-1” value [1] was “D (D = 76-100% inhibition)”, the “KRas G12D mutant + SOS: % inh.” value [2] was “B (B = 26-49% inhibition)” and the “KRas G12D mutant: % inh.” value [2] was “B (B = 26-49% inhibition)”. The inhibition at 20 µM [3] was 26 to 49%, the “KRas wild type + SOS: % inh.” value [4] was “A (A = 1-25% inhibition)” and the “KRas wild type: % inh.” value [4] was “C (C = 50-75% inhibition)”.

`Cc1c(-c2ccn(C)n2)cn2nc(-c3nccn3C)nc(Nc3cc(-c4ccccc4)[nH]n3)c12` [Compound 263, 5-Methyl-2-(1-methyl-1H-imidazol-2-yl)-6-(1-methyl-1H-pyrazol-3-yl)-N-(5-phenyl-1H-pyrazol-3-yl)pyrrolo[2,1-f][1,2,4]triazin-4-amine] was tested, and the “% inh … in Panc-1” value [1] was “C (C = 46-75% inhibition)”, the “KRas G12D mutant + SOS: % inh.” value [2] was “D (D = 76-100% inhibition)” and the “KRas G12D mutant: % inh.” value [2] was “D (D = 76-100% inhibition)”. For the same compound, the inhibition at 20 µM [3] was 76 to 100%, the “KRas wild type + SOS: % inh.” value [4] was “D (D = 76-100% inhibition)” and the “KRas wild type: % inh.” value [4] was “C (C = 50-75% inhibition)”.

For `Cc1c(-c2ccn(C)n2)cn2nc(-c3nccn3C)nc(Nc3cc(-c4cccnc4)[nH]n3)c12` [Compound 264, 5-Methyl-2-(1-methyl-1H-imidazol-2-yl)-6-(1-methyl-1H-pyrazol-3-yl)-N-(5-(pyridin-3-yl)-1H-pyrazol-3-yl)pyrrolo[2,1-f][1,2,4]triazin-4-amine], the “% inh … in Panc-1” value [1] was “A (A = 1-25% inhibition)”, the “KRas G12D mutant + SOS: % inh.” value [2] was “D (D = 76-100% inhibition)” and the “KRas G12D mutant: % inh.” value [2] was “C (C = 50-75% inhibition)”. The inhibition at 20 µM [3] was 76 to 100%, the “KRas wild type + SOS: % inh.” value [4] was “D (D = 76-100% inhibition)” and the “KRas wild type: % inh.” value [4] was “C (C = 50-75% inhibition)”.

For `COc1cc(Nc2nc(-c3nccn3C)nn3cc(-c4ccn(C)n4)c(C)c23)nn1C` [Compound 253, N-(5-Methoxy-1-methyl-1H-pyrazol-3-yl)-5-methyl-2-(1-methyl-1H-imidazol-2-yl)-6-(1-methyl-1H-pyrazol-3-yl)pyrrolo[2,1-f][1,2,4]triazin-4-amine], the “% inh … in Panc-1” value [1] was “A* (A* = 1-25% activation)”, the “KRas G12D mutant + SOS: % inh.” value [2] was “D (D = 76-100% inhibition)” and the “KRas G12D mutant: % inh.” value [2] was “C (C = 50-75% inhibition)”. For the same compound, the inhibition at 20 µM [3] was 76 to 100%, the “KRas wild type + SOS: % inh.” value [4] was “D (D = 76-100% inhibition)” and the “KRas wild type: % inh.” value [4] was “D (D = 76-100% inhibition)”.

With `Cc1c(-c2ccn(C)n2)cn2nc(-c3nccn3C)nc(Nc3cc(-n4ccnc4)ccn3)c12` [Compound 245, N-(4-(1H-imidazol-1-yl)pyridin-2-yl)-5-methyl-2-(1-methyl-1H-imidazol-2-yl)-6-(1-methyl-1H-pyrazol-3-yl)pyrrolo[2,1-f][1,2,4]triazin-4-amine] the “% inh … in Panc-1” value [1] was “B* (B* = 26-45% activation)”, the “KRas G12D mutant + SOS: % inh.” value [2] was “C (C = 50-75% inhibition)” and the “KRas G12D mutant: % inh.” value [2] was “C (C = 50-75% inhibition)”. The inhibition at 20 µM [3] was 50 to 75%, the “KRas wild type + SOS: % inh.” value [4] was “B (B = 26-49% inhibition)” and the “KRas wild type: % inh.” value [4] was “A (A = 1-25% inhibition)”.
